System: harmful plant species
Assay: Specific trial examples: synergistic effect (Δ) of herbicidal binary compositions applied by the post-emergence method, observed vs Colby expected value (Tables 3.1-3.4)
Format: in vivo
[1] = 1 g a.i./ha, post-emergence (Z25)
[2] = 1 g a.i./ha, post-emergence (Z26)
[3] = 4 g a.i./ha, post-emergence (Table 3.2, Z25)
[4] = 5 g a.i./ha, post-emergence (Table 3.2, Z25)
[5] = 16 g a.i./ha, post-emergence (Table 3.2, Z25)

O=C(Nc1ccc(F)cc1F)c1cccnc1Oc1cccc(C(F)(F)F)c1 [(B2.18) Diflufenican]
Herbicidal action 14 DAT [%] against Alopecurus myosuroides (30 g a.i./ha, post-emergence): 20%
Herbicidal action 14 DAT [%] against Phalaris minor (30 g a.i./ha, post-emergence): 20%
Herbicidal action 21 DAT [%] against Abutilon theophrasti (30 g a.i./ha, post-emergence): 20%
Herbicidal action 21 DAT [%] against Ipomoea purpurea (30 g a.i./ha, post-emergence): 30%
Herbicidal action 21 DAT [%] against Kochia Scoparia (30 g a.i./ha, post-emergence): 10%
Herbicidal action 21 DAT [%] against Setaria viridis (30 g a.i./ha, post-emergence): 10%
Herbicidal action 28 DAT [%] against Phalaris minor (30 g a.i./ha, post-emergence): 10%
Herbicidal action 28 DAT [%] against Poa annua L. (30 g a.i./ha, post-emergence): 10%
Herbicidal action 28 DAT [%] against Veronica hederifolia (30 g a.i./ha, post-emergence): 20%
Herbicidal action 14 DAT [%] against Alopecurus myosuroides (90 g a.i./ha, post-emergence): 20%
Herbicidal action 14 DAT [%] against Lolium rigidum (90 g a.i./ha, post-emergence): 20%
Herbicidal action 14 DAT [%] against Poa annua L. (90 g a.i./ha, post-emergence): 20%
Herbicidal action 21 DAT [%] against Abutilon theophrasti (90 g a.i./ha, post-emergence): 20%
Herbicidal action 21 DAT [%] against Kochia Scoparia (90 g a.i./ha, post-emergence): 20%
Herbicidal action 21 DAT [%] against Setaria viridis (90 g a.i./ha, post-emergence): 20%
Herbicidal action 28 DAT [%] against Phalaris minor (90 g a.i./ha, post-emergence): 10%
Herbicidal action 28 DAT [%] against Poa annua L. (90 g a.i./ha, post-emergence): 20%
Herbicidal action 28 DAT [%] against Veronica hederifolia (90 g a.i./ha, post-emergence): 20%
Herbicidal action 14 DAT [%] against Lolium rigidum (270 g a.i./ha, post-emergence): 20%
Herbicidal action 14 DAT [%] against Matricaria inodora (270 g a.i./ha, post-emergence): 30%
Herbicidal action 14 DAT [%] against Phalaris minor (270 g a.i./ha, post-emergence): 30%
Herbicidal action 14 DAT [%] against Veronica hederifolia (270 g a.i./ha, post-emergence): 30%
Herbicidal action 21 DAT [%] against Abutilon theophrasti (270 g a.i./ha, post-emergence): 30%
Herbicidal action 21 DAT [%] against Ipomoea purpurea (270 g a.i./ha, post-emergence): 60%
Herbicidal action 21 DAT [%] against Kochia Scoparia (270 g a.i./ha, post-emergence): 25%
Herbicidal action 28 DAT [%] against Alopecurus myosuroides (270 g a.i./ha, post-emergence): 20%
Herbicidal action 28 DAT [%] against Lolium rigidum (270 g a.i./ha, post-emergence): 30%
Herbicidal action 28 DAT [%] against Matricaria inodora (270 g a.i./ha, post-emergence): 20%
Herbicidal action 28 DAT [%] against Phalaris minor (270 g a.i./ha, post-emergence): 30%
Herbicidal action 28 DAT [%] against Poa annua L. (270 g a.i./ha, post-emergence): 30%
Herbicidal action 28 DAT [%] against Veronica hederifolia (270 g a.i./ha, post-emergence): 30%

CP(=O)(O)CCC(N)C(=O)O (stereo not drawn) [(B7.4) Glufosinate]
Herbicidal action 21 DAT [%] against Abutilon theophrasti (50 g a.i./ha, post-emergence): 50%
Herbicidal action 21 DAT [%] against Kochia Scoparia (50 g a.i./ha, post-emergence): 10%
Herbicidal action 21 DAT [%] against Amaranthus palmeri (50 g a.i./ha, post-emergence (Z25)): 35%
Herbicidal action 14 DAT [%] against Phalaris minor (60 g a.i./ha, post-emergence): 20%
Herbicidal action 14 DAT [%] against Veronica hederifolia (60 g a.i./ha, post-emergence): 50%
Herbicidal action 28 DAT [%] against Phalaris minor (60 g a.i./ha, post-emergence): 10%
Herbicidal action 21 DAT [%] against Amaranthus palmeri (150 g a.i./ha, post-emergence): 90%
Herbicidal action 21 DAT [%] against Kochia Scoparia (150 g a.i./ha, post-emergence): 50%
Herbicidal action 14 DAT [%] against Centaurea cyanus (180 g a.i./ha, post-emergence): 60%
Herbicidal action 14 DAT [%] against Lolium rigidum (180 g a.i./ha, post-emergence): 40%
Herbicidal action 28 DAT [%] against Centaurea cyanus (180 g a.i./ha, post-emergence): 30%
Herbicidal action 28 DAT [%] against Matricaria inodora (180 g a.i./ha, post-emergence): 60%
Herbicidal action 28 DAT [%] against Phalaris minor (180 g a.i./ha, post-emergence): 30%
Herbicidal action 28 DAT [%] against Poa annua L. (180 g a.i./ha, post-emergence): 20%
Herbicidal action 14 DAT [%] against Centaurea cyanus (540 g a.i./ha, post-emergence): 85%
Herbicidal action 14 DAT [%] against Lolium rigidum (resistant biotype) (540 g a.i./ha, post-emergence): 50%
Herbicidal action 14 DAT [%] against Phalaris minor (540 g a.i./ha, post-emergence): 60%
Herbicidal action 28 DAT [%] against Centaurea cyanus (540 g a.i./ha, post-emergence): 70%
Herbicidal action 28 DAT [%] against Lolium rigidum (540 g a.i./ha, post-emergence): 40%
Herbicidal action 28 DAT [%] against Lolium rigidum (resistant biotype) (540 g a.i./ha, post-emergence): 30%
Herbicidal action 28 DAT [%] against Phalaris minor (540 g a.i./ha, post-emergence): 40%

O=C(O)CNCP(=O)(O)O [(B7.5) Glyphosate]
Herbicidal action 28 DAT [%] against Centaurea cyanus (50 g a.i./ha, post-emergence): 10%
Herbicidal action 28 DAT [%] against Phalaris minor (50 g a.i./ha, post-emergence): 30%
Herbicidal action 21 DAT [%] against Amaranthus palmeri (50 g a.i./ha, post-emergence (Z26)): 60%
Herbicidal action 14 DAT [%] against Centaurea cyanus (150 g a.i./ha, post-emergence): 50%
Herbicidal action 28 DAT [%] against Bromus sterilis (150 g a.i./ha, post-emergence): 80%
Herbicidal action 28 DAT [%] against Centaurea cyanus (150 g a.i./ha, post-emergence): 40%
Herbicidal action 28 DAT [%] against Lolium rigidum (150 g a.i./ha, post-emergence): 30%
Herbicidal action 28 DAT [%] against Matricaria inodora (150 g a.i./ha, post-emergence): 70%
Herbicidal action 21 DAT [%] against Kochia Scoparia (150 g a.i./ha, post-emergence (Z26)): 20%
Herbicidal action 14 DAT [%] against Centaurea cyanus (450 g a.i./ha, post-emergence): 60%
Herbicidal action 28 DAT [%] against Bromus sterilis (450 g a.i./ha, post-emergence): 90%
Herbicidal action 28 DAT [%] against Centaurea cyanus (450 g a.i./ha, post-emergence): 60%
Herbicidal action 28 DAT [%] against Lolium rigidum (resistant biotype) (450 g a.i./ha, post-emergence): 70%
Herbicidal action 28 DAT [%] against Poa annua L. (450 g a.i./ha, post-emergence): 85%
Herbicidal action 16 DAT [%] against Richardia scabra (720 g a.i./ha, post-emergence): 62%
Herbicidal action 42 DAT [%] against Geranium dissectum (720 g a.i./ha, post-emergence): 50%
Herbicidal action 42 DAT [%] against Malva pusilla (720 g a.i./ha, post-emergence): 0%
Herbicidal action 45 DAT [%] against Amaranthus tuberculatus (720 g a.i./ha, post-emergence): 15%
Herbicidal action 45 DAT [%] against Ipomoea ssp (720 g a.i./ha, post-emergence): 0%
Herbicidal action 45 DAT [%] against Lysimachia nummularia (720 g a.i./ha, post-emergence): 7%

C=C[C@]1(C(=O)N[C@H]2C=C[C@@H](C(=O)OC)C2)CC(c2cc(F)cc(F)c2)=NO1 [Compound A1, methyl (1S,4R)-4-[[[(5S)-3-(3,5-difluorophenyl)-5-vinyl-4H-1,2-oxazol-5-yl]carbonyl]amino]cyclopent-2-ene-1-carboxylate]
Herbicidal action 14 DAT [%] against Lolium rigidum (resistant biotype) (1 g a.i./ha, post-emergence): 20%
Herbicidal action 14 DAT [%] against Phalaris minor (1 g a.i./ha, post-emergence): 30%
Herbicidal action 14 DAT [%] against Veronica hederifolia (1 g a.i./ha, post-emergence): 30%
Herbicidal action 28 DAT [%] against Bromus sterilis (1 g a.i./ha, post-emergence): 30%
Herbicidal action 28 DAT [%] against Lolium rigidum (resistant biotype) (1 g a.i./ha, post-emergence): 20%
Herbicidal action 28 DAT [%] against Poa annua L. (1 g a.i./ha, post-emergence): 30%
Herbicidal action 14 DAT [%] against Phalaris minor (1 g a.i./ha, post-emergence (Table 3.2, Z25)): 30%
Herbicidal action 14 DAT [%] against Centaurea cyanus [1]: 10%
Herbicidal action 28 DAT [%] against Centaurea cyanus [1]: 10%
Herbicidal action 28 DAT [%] against Lolium rigidum [1]: 30%
Herbicidal action 28 DAT [%] against Matricaria inodora [1]: 50%
Herbicidal action 14 DAT [%] against Centaurea cyanus [2]: 10%
Herbicidal action 28 DAT [%] against Centaurea cyanus [2]: 10%
Herbicidal action 28 DAT [%] against Lolium rigidum [2]: 30%
Herbicidal action 28 DAT [%] against Matricaria inodora [2]: 50%
Herbicidal action 28 DAT [%] against Poa annua L. [2]: 30%
Herbicidal action 21 DAT [%] against Setaria viridis (1.7 g a.i./ha, post-emergence): 85%
Herbicidal action 14 DAT [%] against Alopecurus myosuroides (4 g a.i./ha, post-emergence): 80%
Herbicidal action 14 DAT [%] against Centaurea cyanus (4 g a.i./ha, post-emergence): 30%
Herbicidal action 14 DAT [%] against Lolium rigidum (4 g a.i./ha, post-emergence): 70%
Herbicidal action 14 DAT [%] against Matricaria inodora (4 g a.i./ha, post-emergence): 70%
Herbicidal action 14 DAT [%] against Phalaris minor (4 g a.i./ha, post-emergence): 75%
Herbicidal action 14 DAT [%] against Poa annua L. (4 g a.i./ha, post-emergence): 80%
Herbicidal action 28 DAT [%] against Alopecurus myosuroides (4 g a.i./ha, post-emergence): 85%
Herbicidal action 28 DAT [%] against Centaurea cyanus (4 g a.i./ha, post-emergence): 30%
Herbicidal action 28 DAT [%] against Lolium rigidum (4 g a.i./ha, post-emergence): 75%
Herbicidal action 28 DAT [%] against Phalaris minor (4 g a.i./ha, post-emergence): 70%
Herbicidal action 28 DAT [%] against Poa annua L. (4 g a.i./ha, post-emergence): 85%
Herbicidal action 28 DAT [%] against Veronica hederifolia (4 g a.i./ha, post-emergence): 40%
Herbicidal action 14 DAT [%] against Phalaris minor [3]: 75%
Herbicidal action 28 DAT [%] against Lolium rigidum [3]: 75%
Herbicidal action 28 DAT [%] against Phalaris minor [3]: 70%
Herbicidal action 28 DAT [%] against Poa annua L. [3]: 85%
Herbicidal action 28 DAT [%] against Lolium rigidum (resistant biotype) (4 g a.i./ha, post-emergence (Z25)): 40%
Herbicidal action 28 DAT [%] against Lolium rigidum (resistant biotype) (4 g a.i./ha, post-emergence (Z26)): 40%
Herbicidal action 21 DAT [%] against Abutilon theophrasti (5 g a.i./ha, post-emergence): 60%
Herbicidal action 21 DAT [%] against Ipomoea purpurea (5 g a.i./ha, post-emergence): 80%
Herbicidal action 21 DAT [%] against Kochia Scoparia (5 g a.i./ha, post-emergence): 75%
Herbicidal action 21 DAT [%] against Setaria viridis (5 g a.i./ha, post-emergence): 90%
Herbicidal action 21 DAT [%] against Abutilon theophrasti [4]: 60%
Herbicidal action 21 DAT [%] against Kochia Scoparia [4]: 75%
Herbicidal action 21 DAT [%] against Amaranthus palmeri (5 g a.i./ha, post-emergence (Z25)): 30%
Herbicidal action 21 DAT [%] against Amaranthus palmeri (5 g a.i./ha, post-emergence (Z26)): 30%
Herbicidal action 21 DAT [%] against Amaranthus palmeri (15 g a.i./ha, post-emergence): 40%
Herbicidal action 21 DAT [%] against Ipomoea purpurea (15 g a.i./ha, post-emergence): 80%
Herbicidal action 21 DAT [%] against Kochia Scoparia (15 g a.i./ha, post-emergence): 80%
Herbicidal action 21 DAT [%] against Kochia Scoparia (15 g a.i./ha, post-emergence (Table 3.2, Z25)): 80%
Herbicidal action 21 DAT [%] against Kochia Scoparia (15 g a.i./ha, post-emergence (Z26)): 80%
Herbicidal action 14 DAT [%] against Alopecurus myosuroides (16 g a.i./ha, post-emergence): 85%
Herbicidal action 14 DAT [%] against Centaurea cyanus (16 g a.i./ha, post-emergence): 40%
Herbicidal action 14 DAT [%] against Lolium rigidum (16 g a.i./ha, post-emergence): 80%
Herbicidal action 14 DAT [%] against Poa annua L. (16 g a.i./ha, post-emergence): 80%
Herbicidal action 14 DAT [%] against Veronica hederifolia (16 g a.i./ha, post-emergence): 70%
Herbicidal action 28 DAT [%] against Centaurea cyanus (16 g a.i./ha, post-emergence): 50%
Herbicidal action 28 DAT [%] against Matricaria inodora (16 g a.i./ha, post-emergence): 85%
Herbicidal action 28 DAT [%] against Phalaris minor (16 g a.i./ha, post-emergence): 85%
Herbicidal action 28 DAT [%] against Matricaria inodora [5]: 85%
Herbicidal action 28 DAT [%] against Phalaris minor [5]: 85%
Herbicidal action 28 DAT [%] against Phalaris minor (16 g a.i./ha, post-emergence (Z26)): 85%
Herbicidal action 21 DAT [%] against Kochia Scoparia (45 g a.i./ha, post-emergence): 85%
Herbicidal action 16 DAT [%] against Richardia scabra (100 g a.i./ha, post-emergence): 48%
Herbicidal action 42 DAT [%] against Geranium dissectum (100 g a.i./ha, post-emergence): 17%
Herbicidal action 42 DAT [%] against Malva pusilla (100 g a.i./ha, post-emergence): 0%
Herbicidal action 45 DAT [%] against Amaranthus tuberculatus (100 g a.i./ha, post-emergence): 57%
Herbicidal action 45 DAT [%] against Ipomoea ssp (100 g a.i./ha, post-emergence): 57%
Herbicidal action 45 DAT [%] against Lysimachia nummularia (100 g a.i./ha, post-emergence): 25%

— patent publication US12433293B2, “Herbicidal compositions” (BAYER AKTIENGESELLSCHAFT, priority 2019, dated 2025)
